Experimental data taken from patent publication US20050192244A1, “Histamine release inhibitor” (priority 2002, published 2005).

Test system: mast cells
Assay: Inhibitory effect on histamine release from rat peritoneal mast cells stimulated with compound 48/80 (histamine by HPLC, diazotation method)
Assay type: cell-based
Settings: histamine release induced by compound 48/80, mean of three measurements; for inhibition at 10 µg/mL: sample concentration 10 μg/ml
From the text: (1) With regard to the following substances, an inhibitory effect on type I allergic reaction was investigated by investigating an inhibitory effect on histamine release from mast cells. • <1> Adenosine • <2> Guanosine • <3> Cytidine • <4> Uridine • <5> Adenosine monophosphate (AMP) • <6> Adenosine diphosphate (ADP) • <7> Adenosine triphosphate (ATP) • <8> Adenosine derived from Phellinus linteus (described later as Compound A) • <9> N-hydroxy-N-methyl-adenosine derived from Phellinus linteus (described later as Compound B) • <10> A commercially available histamine inhibitor (brand name: Intal, major component: disodium cromoglycate, manufacturer: Fujisawa Pharmaceutical Co., Ltd.)
(a) For a test animal, a male Wister rat (at 6 to 8 weeks of age) was used.
After a rat was sacrificed by exsanguination under anesthesia with ether, 15 ml of Tyrode Buffer was injected into the peritoneal cavity of the rat and intraperitoneal cavity fluid was recovered. Ten ml of Tyrode Buffer was further injected into the peritoneal cavity of the rat. Intraperitoneal cavity fluid was further recovered and combined with the intraperitoneal fluid recovered before. This intraperitoneal fluid was centrifuged at 800 rpm for 10 minutes at 4° C. and the supernatant was removed and filtrated.
Further, cell suspension, to which Tyrode Buffer was added, was centrifuged at 800 rpm for 10 minutes at 4° C., the supernatant was removed and the cells were homogenized. This cell suspension was measured with an erythrocytometer, and prepared to be 8×10^6 cells/ml for use.
The cell suspension (370 μl) dispensed into a 1.2 ml-microtube was pre-incubated in a water bath at 37° C.
Ten minutes later, 20 μl of sample prepared at each concentration was added.
Further, 10 minutes later, 10 μl of compound 48/80 (a mast cell stimulation agent; manufactured by Wako Pure Chemical Industries, Ltd.) (0.5 μg/ml), which is an allergy inducer, was added.
Fifteen minutes later, the reaction was terminated on ice.
Further, to remove the mast cells, centrifugation was carried out at 13,000 rpm for 15 minutes at 4° C. and the supernatant was recovered.
This supernatant was used as a sample for diazotation in HPLC analysis.
An equal amount of 20 mM p-nitroaniline hydrochloric acid solution and 200 mM sodium nitrite aqueous solution were mixed well (diazo reagent).
To 10 μl of the diazo reagent, 20 μl of the foregoing sample for (histamine) diazotation was added and mixed well by using a vortex mixer.
Further, 30 μl of sodium carbonate ethanol solution was added and mixed well by using a vortex mixer.
This solution (20 μl) was used in HPLC analysis.
(c) The analysis of histamine was carried out by the diazotation method (Specific Determination of Histamine in Fish by High-performance Liquid Chromatography after Diazo Coupling: Biosci. Biotech. Biochem. 59 (7) 1208-1210 (1995)).
(4) The results of the inhibitory effects on histamine release from mast cells of a specified concentration of <1> adenosine, <2> guanosine, <3> cytidine, <4> uridine, <5> adenosine monophosphate (AMP), <6> adenosine diphosphate (ADP), <7> adenosine triphosphate (ATP) (<1> to <7> substances were from Wako Pure Chemical Industries, Ltd.), <8> adenosine derived from Phellinus linteus (described later as Compound A), <9> N-hydroxy-N-methyl-adenosine derived from Phellinus linteus (described later as Compound B), and <10> a commercially available histamine inhibitor (brand name: Intal, major component: sodium cromoglycate, manufacturer: Fujisawa Pharmaceutical Co., Ltd.) are shown in Table 2. The inhibition ratios shown in Table 2 are mean values of three measurement values in each case.
The value of inhibition ratio was calculated from the following calculation formula.
Calculation Formula: (1−(peak integral value of sample)/(peak integral value of control))×100

[1] = Rattus norvegicus, Mast cell, sample concentration 5 μg/ml, read-out: Inhibition Ratio (%)
[2] = Rattus norvegicus, Mast cell, read-out: Inhibition Ratio (%)

SMILES | inhibition at 5 µg/mL [1] [%] | inhibition at 10 µg/mL [2] [%] | also measured
Nc1ncnc2c1ncn2[C@@H]1O[C@H](CO)[C@@H](O)[C@H]1O [Adenosine derived from Phellinus linteus, adenosine] | 41.5 | – | –
Nc1ncnc2c1ncn2[C@@H]1O[C@H](COP(=O)(O)OP(=O)(O)O)[C@@H](O)[C@H]1O [Adenosine diphosphate, adenosine 5′-diphosphate] | – | 47.8 | –
Nc1ncnc2c1ncn2[C@@H]1O[C@H](COP(=O)(O)O)[C@@H](O)[C@H]1O [Adenosine monophosphate, adenosine 5′-monophosphate] | – | 54.9 | –
Nc1ncnc2c1ncn2[C@@H]1O[C@H](COP(=O)(O)OP(=O)(O)OP(=O)(O)O)[C@@H](O)[C@H]1O [Adenosine triphosphate, adenosine 5′-triphosphate] | – | 40 | –
Nc1ncnc2c1ncn2[C@@H]1O[C@H](CO)[C@@H](O)[C@H]1O [Adenosine] | – | – | inhibition at 1 µg/mL (Rattus norvegicus, Mast cell, sample concentration 1 μg/ml, read-out: Inhibition Ratio (%)): 27.5%; inhibition at 20 µg/mL (Rattus norvegicus, Mast cell, sample concentration 20 μg/ml, read-out: Inhibition Ratio (%)): 59.3%; inhibition at 50 µg/mL (Rattus norvegicus, Mast cell, sample concentration 50 μg/ml, read-out: Inhibition Ratio (%)): 74.7%; Inhibition Ratio (%) (sample concentration 5 μg/ml): 43.8%
Nc1ccn([C@@H]2O[C@H](CO)[C@@H](O)[C@H]2O)c(=O)n1 [Cytidine] | 38 | – | –
Nc1nc2c(ncn2[C@@H]2O[C@H](CO)[C@@H](O)[C@H]2O)c(=O)[nH]1 [Guanosine] | 39 | – | –
CN(O)c1ncnc2c1ncn2[C@@H]1O[C@H](CO)[C@@H](O)[C@H]1O [N-hydroxy-N-methyl-adenosine] | 27 | – | –
O=c1ccn([C@@H]2O[C@H](CO)[C@@H](O)[C@H]2O)c(=O)[nH]1 [Uridine] | 34 | – | –
